Test results published in patent US20260091026A1, “METHODS OF TREATING INFLAMMATORY DISEASES” (INTERLINE THERAPEUTICS, INC., priority 2023, published 2026).

Columns and labels:
RIPK2 (KD)/XIAP (BIR2) = target: T1, RIPK2 (KD)/XIAP (BIR2) (Homo sapiens, UniProt O43353); experiment: RIPK2-XIAP binding competition PPI assay (TR-FRET); settings: for Emax: 50 nM of GSK583 = -100% activity, read-out: PPI Amax; for IC50: GST-RIPK2 / His-XIAP (BIR2)-avi, 120 min at 23° C.
T1 construct: made in house; host or cells: baculovirus-infected Sf9 cells
T1 sequence (O43353 1-310): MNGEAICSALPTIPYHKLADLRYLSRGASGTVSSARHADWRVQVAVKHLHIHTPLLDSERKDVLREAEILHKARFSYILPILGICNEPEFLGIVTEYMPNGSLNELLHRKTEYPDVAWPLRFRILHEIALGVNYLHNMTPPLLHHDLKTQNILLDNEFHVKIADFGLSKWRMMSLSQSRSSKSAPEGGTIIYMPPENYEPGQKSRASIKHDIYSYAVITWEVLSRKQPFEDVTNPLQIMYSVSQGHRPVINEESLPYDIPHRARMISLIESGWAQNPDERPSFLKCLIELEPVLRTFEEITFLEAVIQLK
Outline: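 TR-FRET competition between GST-RIPK2 (aa 1-310, 1 nM) and His-XIAP BIR2-avi (aa 152-231, 25 nM), both Sf9-expressed, detected with anti-His-XL665 and anti-GST-Tb in Tris pH 7.5 buffer with MgCl2, DTT and vanadate. Incubation was 120 min at 23 °C; the 665/520 nm ratio was normalized to no inhibitor (0%) and 50 nM GSK583 (−100%).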

[1] = system: THP1-Dual cells, NF-κB pathway (SEAP); experiment: THP-1 Dual cell SEAP assay (L18-MDP stimulated); type: cell-based; settings: Homo sapiens, 10 ng/mL L18-MDP, 20-24 h, SEAP readout, read-out: IFNγ THP1 IC50
Outline: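 About 25,000 THP1-Dual cells per well were preincubated 30 min with serially diluted compound, then stimulated overnight (20-24 h, 37 °C) with 10 ng/mL L18-MDP (final). NF-κB-driven SEAP in supernatant was read with QUANTI-Blue at OD 620-655 nm after 2 h; % inhibition versus DMSO/L18-MDP wells was fitted by non-linear regression to give IC50.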

Structure (SMILES) | Emax (RIPK2 (KD)/XIAP (BIR2)) | IC50 (RIPK2 (KD)/XIAP (BIR2)) | IC50 [1]
C[C@@H](NC(=O)c1cc(-c2cnn3cc(OCCO)c(S(=O)(=O)C(C)(C)C)cc23)nn1C)c1ccccn1 [Example 115, (R)-3-(5-(tert-butylsulfonyl)-6-(2-hydroxyethoxy)pyrazolo[1,5-a]pyridin-3-yl)-1-methyl-N-(1-(pyridin-2-yl)ethyl)-1H-pyrazole-5-carboxamide] | ≥ 80% | 10 to 100 nM | 500 to 2500 nM
COc1cc2ncc(-c3cc(C(=O)NCc4nc(C)no4)n(C)n3)n2cc1S(=O)(=O)C(C)(C)C [Example 78, 3-(6-(tert-butylsulfonyl)-7-methoxyimidazo[1,2-a]pyridin-3-yl)-1-methyl-N-((3-methyl-1,2,4-oxadiazol-5-yl)methyl)-1H-pyrazole-5-carboxamide] | 55 to 80% | > 1000 nM | > 2500 nM
COc1cc2ncc(-c3cc(C(=O)N[C@H](C)c4ncccc4F)n(CCO)n3)n2cc1S(=O)(=O)C(C)(C)C [Example 143, (R)-3-(6-(tert-butylsulfonyl)-7-methoxyimidazo[1,2-a]pyridin-3-yl)-N-(1-(3-fluoropyridin-2-yl)ethyl)-1-(2-hydroxyethyl)-1H-pyrazole-5-carboxamide] | ≥ 80% | 10 to 100 nM | 100 to 500 nM
COCCn1nc(-c2cnc3cc(OCCO)c(S(=O)(=O)C(C)(C)C)cn23)cc1C(=O)N[C@H](C)c1ncccc1F [Example 138, (R)-3-(6-(tert-butylsulfonyl)-7-(2-hydroxyethoxy)imidazo[1,2-a]pyridin-3-yl)-N-(1-(3-fluoropyridin-2-yl)ethyl)-1-(2-methoxyethyl)-1H-pyrazole-5-carboxamide] | ≥ 80% | 10 to 100 nM | 100 to 500 nM
COc1cc2ncc(-c3cc(C(=O)N[C@H](C)c4ccccn4)n(C)n3)n2cc1C1(F)CCN(C)CC1 [Example 47, (R)-3-(6-(4-fluoro-1-methylpiperidin-4-yl)-7-methoxyimidazo[1,2-a]pyridin-3-yl)-1-methyl-N-(1-(pyridin-2-yl)ethyl)-1H-pyrazole-5-carboxamide] | ≥ 80% | 10 to 100 nM | 500 to 2500 nM
CCn1nc(-c2cnc3cc(OCCO)c(S(=O)(=O)C(C)(C)C)cn23)cc1C(=O)N[C@@H](C)c1ncc(C)s1 [Example 131, (S)-3-(6-(tert-butylsulfonyl)-7-(2-hydroxyethoxy)imidazo[1,2-a]pyridin-3-yl)-1-ethyl-N-(1-(5-methylthiazol-2-yl)ethyl)-1H-pyrazole-5-carboxamide] | ≥ 80% | 10 to 100 nM | 500 to 2500 nM
CCn1nc(-c2cnc3cc(OC)c(S(=O)(=O)C(C)(C)C)cn23)cc1C(=O)N[C@H](C)c1ncccc1F [Example 97, (R)-3-(6-(tert-butylsulfonyl)-7-methoxyimidazo[1,2-a]pyridin-3-yl)-1-ethyl-N-(1-(3-fluoropyridin-2-yl)ethyl)-1H-pyrazole-5-carboxamide] | ≥ 80% | < 10 nM | < 100 nM
COc1cc2ncc(-c3cc(C(=O)N[C@H](C)c4ccccc4F)n(C)n3)n2cc1S(=O)(=O)C(C)(C)C [Example 10, (R)-3-(6-(tert-butylsulfonyl)-7-methoxyimidazo[1,2-a]pyridin-3-yl)-N-(1-(2-fluorophenyl)ethyl)-1-methyl-1H-pyrazole-5-carboxamide] | ≥ 80% | 10 to 100 nM | 100 to 500 nM
CCn1nc(-c2cnc3cc(OC)c(S(=O)(=O)C(C)(C)C)cn23)cc1C(=O)N[C@@H](C)c1ccn(C)n1 [Example 124, (S)-3-(6-(tert-butylsulfonyl)-7-methoxyimidazo[1,2-a]pyridin-3-yl)-1-ethyl-N-(1-(1-methyl-1H-pyrazol-3-yl)ethyl)-1H-pyrazole-5-carboxamide] | ≥ 80% | 100 to 1000 nM | > 2500 nM
COc1cc2ncc(-c3cc(C(=O)N[C@H](C)c4ccccn4)n(CCO)n3)n2cc1S(=O)(=O)C(C)(C)C [Example 142, (R)-3-(6-(tert-butylsulfonyl)-7-methoxyimidazo[1,2-a]pyridin-3-yl)-1-(2-hydroxyethyl)-N-(1-(pyridin-2-yl)ethyl)-1H-pyrazole-5-carboxamide] | ≥ 80% | 10 to 100 nM | 500 to 2500 nM
COc1cc2ncc(-c3cc(C(=O)NCc4cc(C)sn4)n(C)n3)n2cc1S(=O)(=O)C(C)(C)C [Example 87, 3-(6-(tert-butylsulfonyl)-7-methoxyimidazo[1,2-a]pyridin-3-yl)-1-methyl-N-((5-methylisothiazol-3-yl)methyl)-1H-pyrazole-5-carboxamide] | ≥ 80% | 10 to 100 nM | 500 to 2500 nM
C[C@H](CO)COc1cc2ncc(-c3cc(NC(=O)Cc4ccccc4Cl)n(C)n3)n2cc1S(=O)(=O)C(C)(C)C [Example 187, (R)-N-(3-(6-(tert-butylsulfonyl)-7-(3-hydroxy-2-methylpropoxy)imidazo [1,2-a]pyridin-3-yl)-1-methyl-1H-pyrazol-5-yl)-2-(2-chlorophenyl)acetamide] | ≥ 80% | < 10 nM | 100 to 500 nM
CCn1nc(-c2cnc3cc(OCCO)c(S(=O)(=O)C(C)(C)C)cn23)cc1C(=O)NCc1cc(C)sn1 [Example 129, 3-(6-(tert-butylsulfonyl)-7-(2-hydroxyethoxy)imidazo[1,2-a]pyridin-3-yl)-1-ethyl-N-((5-methylisothiazol-3-yl)methyl)-1H-pyrazole-5-carboxamide] | ≥ 80% | < 10 nM | < 100 nM
C[C@@H](NC(=O)c1cc(-c2cnc3cc(OCCO)c(S(=O)(=O)C(C)(C)C)cn23)nn1C)c1ncccc1Cl [Example 111, (R)-3-(6-(tert-butylsulfonyl)-7-(2-hydroxyethoxy)imidazo[1,2-a]pyridin-3-yl)-N-(1-(3-chloropyridin-2-yl)ethyl)-1-methyl-1H-pyrazole-5-carboxamide] | ≥ 80% | 10 to 100 nM | 100 to 500 nM
C[C@@H](NC(=O)c1cc(-c2cnc3cc(OCCO)c(S(=O)(=O)C(C)(C)C)cn23)nn1C)c1ccccn1 [Example 109, (R)-3-(6-(tert-butylsulfonyl)-7-(2-hydroxyethoxy)imidazo[1,2-a]pyridin-3-yl)-1-methyl-N-(1-(pyridin-2-yl)ethyl)-1H-pyrazole-5-carboxamide] | ≥ 80% | 10 to 100 nM | 100 to 500 nM
COc1cc2ncc(-c3cc(C(=O)N[C@H]4CCc5cccnc54)n(C)n3)n2cc1S(=O)(=O)C(C)(C)C [Example 64, (S)-3-(6-(tert-butylsulfonyl)-7-methoxyimidazo[1,2-a]pyridin-3-yl)-N-(6,7-dihydro-5H-cyclopenta[b]pyridin-7-yl)-1-methyl-1H-pyrazole-5-carboxamide] | ≥ 80% | 10 to 100 nM | 500 to 2500 nM
COc1cc2ncc(-c3cc(C(=O)NCc4ccc(F)cn4)n(C)n3)n2cc1S(=O)(=O)C(C)(C)C [Example 46, 3-(6-(tert-butylsulfonyl)-7-methoxyimidazo[1,2-a]pyridin-3-yl)-N-((5-fluoropyridin-2-yl)methyl)-1-methyl-1H-pyrazole-5-carboxamide] | ≥ 80% | 100 to 1000 nM | > 2500 nM
COc1cc2ncc(-c3cc(C(=O)N[C@H](C)c4ncccn4)n(CC(F)(F)CO)n3)n2cc1S(=O)(=O)C(C)(C)C [Example 107, (R)-3-(6-(tert-butylsulfonyl)-7-methoxyimidazo[1,2-a]pyridin-3-yl)-1-(2,2-difluoro-3-hydroxypropyl)-N-(1-(pyrimidin-2-yl)ethyl)-1H-pyrazole-5-carboxamide] | ≥ 80% | 10 to 100 nM | 500 to 2500 nM
CCn1nc(-c2cnn3cc(OCCO)c(S(=O)(=O)C(C)(C)C)cc23)cc1C(=O)N[C@H](C)c1ncccn1 [Example 117, (R)-3-(5-(tert-butylsulfonyl)-6-(2-hydroxyethoxy)pyrazolo[1,5-a]pyridin-3-yl)-1-ethyl-N-(1-(pyrimidin-2-yl)ethyl)-1H-pyrazole-5-carboxamide] | ≥ 80% | 10 to 100 nM | < 100 nM
COc1cc2ncc(-c3cc(C(=O)NCc4cc5ccccn5n4)n(C)n3)n2cc1S(=O)(=O)C(C)(C)C [Example 23, 3-(6-(tert-butylsulfonyl)-7-methoxyimidazo[1,2-a]pyridin-3-yl)-1-methyl-N-(pyrazolo[1,5-a]pyridin-2-ylmethyl)-1H-pyrazole-5-carboxamide] | ≤ 30% | > 1000 nM | 500 to 2500 nM
CNc1nccn2c(-c3cc(C(=O)N[C@H](C)c4ccccc4)n(C)n3)cnc12 [Example 190, (R)-1-methyl-3-(8-(methylamino)imidazo [1,2-a]pyrazin-3-yl)-N-(1-phenylethyl)-1H-pyrazole-5-carboxamide] | 30 to 55% | > 1000 nM | > 2500 nM
COc1cc2ncc(-c3cc(C(=O)N[C@H](C)c4ncccn4)n(C4CC4)n3)n2cc1S(=O)(=O)C(C)(C)C [Example 100, (R)-3-(6-(tert-butylsulfonyl)-7-methoxyimidazo[1,2-a]pyridin-3-yl)-1-cyclopropyl-N-(1-(pyrimidin-2-yl)ethyl)-1H-pyrazole-5-carboxamide] | ≥ 80% | < 10 nM | < 100 nM
